Experiment [1] concerns Candida albicans. The experiment is described as follows: Antifungal activity against amphotericin-B-resistant Candida albicans ATCC 90873 after 14 to 16 hrs. In kind it is functional.
Experiment [2] relates to Candida albicans. The experiment is described as follows: Antifungal activity against wild type-Candida albicans ATCC 32354 after 14 to 16 hrs. In kind it is functional.
Another experiment relates to HCT-116. The experiment is described as follows: Cytotoxicity against human HCT116 cells after 72 hrs. In kind it is cell-based. The conditions noted are these: HCT-116, 72 h.

The results in this text go back to ChEMBL document CHEMBL1147122, “Eurysterols A and B, cytotoxic and antifungal steroidal sulfates from a marine sponge of the genus Euryspongia” (J Nat Prod, 2007).

In the case of `CC(C)CCC[C@@H](C)[C@H]1CC[C@@H]2[C@]1(C)CC[C@H]1[C@@]23C[C@@H](O)[C@@]2(O)C[C@@H](OS(=O)(=O)[O-])CC[C@]12CO3.[Na+]` [EURYSTEROL A], the MIC in the experiment with Candida albicans [1] and in the experiment on Candida albicans [2] was 15.6 mg/L each time. In the experiment on HCT-116, the IC50 was determined as 2.9 mg/L.

With `CC(C)C/C=C/[C@@H](C)[C@H]1CC[C@@H]2[C@]1(C)CC[C@H]1[C@@]23C[C@@H](O)[C@@]2(O)C[C@@H](OS(=O)(=O)[O-])CC[C@]12CO3.[Na+]` [EURYSTEROL B], the MIC with Candida albicans [1] and against Candida albicans [2] was 62.5 mg/L throughout. In addition, in the experiment with HCT-116, half-maximal inhibition (IC50) was put at 14.3 mg/L.
